Reference: patent US11254663B2 (BRISTOL-MYERS SQUIBB COMPANY, priority 2019, dated 2022)

target: FXR (Homo sapiens (Human), UniProt Q96RI1); test: FXR EC50 (FXR agonist potency reported with each Example); assay type: cell-based
Sequence (Q96RI1 262-486): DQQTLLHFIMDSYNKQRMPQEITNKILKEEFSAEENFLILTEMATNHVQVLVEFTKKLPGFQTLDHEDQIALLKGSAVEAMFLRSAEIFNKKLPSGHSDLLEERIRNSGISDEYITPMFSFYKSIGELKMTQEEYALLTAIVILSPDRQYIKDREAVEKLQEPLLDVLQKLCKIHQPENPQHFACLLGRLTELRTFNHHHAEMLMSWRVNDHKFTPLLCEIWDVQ

Compared with O=C(N(CC12CCC(c3nnc(C4CC4)o3)(CC1)CC2)c1cccc(-c2nnc(C3CC3)o2)c1)C12CC(F)(C1)C2 [Example 136, N-((4-(5-cyclopropyl-1,3,4-oxadiazol-2-yl)bicyclo[2.2.2]octan-1-yl)methyl)-N-(3-(5-cyclopropyl-1,3,4-oxadiazol-2-yl)phenyl)-3-fluorobicyclo[1.1.1]pentane-1-carboxamide], O=C(N(CC12CCC(c3nc(C4CC4)no3)(CC1)CC2)c1cccc(-c2cc(C3CC3)on2)c1)C12CC(F)(C1)C2 [Example 57, N-((4-(3-cyclopropyl-1,2,4-oxadiazol-5-yl)bicyclo[2.2.2]octan-1-yl)methyl)-N-(3-(5-cyclopropylisoxazol-3-yl)phenyl)-3-fluorobicyclo[1.1.1]pentane-1-carboxamide] is 7.1-fold lower in EC50: 141 nM for the first, 19.8 nM for the second.

First: CC1(c2nc(-c3cccc(N(CC45CCC(c6nc(C(F)F)no6)(CC4)CC5)C(=O)C45CC(F)(C4)C5)c3)no2)COC1 [Example 173, N-((4-(3-(difluoromethyl)-1,2,4-oxadiazol-5-yl)bicyclo[2.2.2]octan-1-yl)methyl)-3-fluoro-N-(3-(5-(3-methyloxetan-3-yl)-1,2,4-oxadiazol-3-yl)phenyl)bicyclo[1.1.1]pentane-1-carboxamide]
Second: CC(C)c1nc(-c2cccc(N(CC34CCC(c5nc(C6CC6)no5)(CC3)CC4)C(=O)C34CC(F)(C3)C4)c2)no1 [Example 109, N-((4-(3-cyclopropyl-1,2,4-oxadiazol-5-yl)bicyclo[2.2.2]octan-1-yl)methyl)-3-fluoro-N-(3-(5-isopropyl-1,2,4-oxadiazol-3-yl)phenyl)bicyclo[1.1.1]pentane-1-carboxamide]
The EC50 of the first is 2.5-fold higher: 139 nM for the first, 55 nM for the second.

Going from CC(C)(C)c1nc(C23CCC(CN(C(=O)C45CC(F)(C4)C5)c4cccc(-c5cnn(S(C)(=O)=O)c5)c4)(CC2)CC3)no1 [Example 194, N-((4-(5-(tert-butyl)-1,2,4-oxadiazol-3-yl)bicyclo[2.2.2]octan-1-yl)methyl)-3-fluoro-N-(3-(1-(methylsulfonyl)-1H-pyrazol-4-yl)phenyl)bicyclo[1.1.1]pentane-1-carboxamide] to CC(C)(C)c1nc(-c2cccc(N(CC34CCC(c5ccc(C(F)(F)F)cn5)(CC3)CC4)C(=O)C34CC(F)(C3)C4)c2)no1 [Example 188, N-(3-(5-(tert-butyl)-1,2,4-oxadiazol-3-yl)phenyl)-3-fluoro-N-((4-(5-(trifluoromethyl)pyridin-2-yl)bicyclo[2.2.2]octan-1-yl)methyl)bicyclo[1.1.1]pentane-1-carboxamide], the EC50 rises from 16 nM to 304 nM (19-fold). The first is the more potent here.

O=C(C1CCC1)N(CC12CCC(c3nc(C4CC4)no3)(CC1)CC2)c1cccc(-c2nc(CC3CC3)no2)c1 [Example 66, N-((4-(3-cyclopropyl-1,2,4-oxadiazol-5-yl)bicyclo[2.2.2]octan-1-yl)methyl)-N-(3-(3-(cyclopropylmethyl)-1,2,4-oxadiazol-5-yl)phenyl)cyclobutanecarboxamide] and CCOc1nnc(-c2cccc(N(CC34CCC(c5nc(C6CC6)no5)(CC3)CC4)C(=O)C3CCC3)c2)o1 [Example 54, N-((4-(3-cyclopropyl-1,2,4-oxadiazol-5-yl)bicyclo[2.2.2]octan-1-yl)methyl)-N-(3-(5-ethoxy-1,3,4-oxadiazol-2-yl)phenyl)cyclobutanecarboxamide] are within 1.5-fold of each other in EC50: 303 nM for the first, 215 nM for the second.

Compared with O=C(N(CC12CCC(c3nc(C4CC4)no3)(CC1)CC2)c1cccc(-c2cnc(C3CCOCC3)o2)c1)C12CC(F)(C1)C2 [Example 35, N-((4-(3-cyclopropyl-1,2,4-oxadiazol-5-yl)bicyclo[2.2.2]octan-1-yl)methyl)-3-fluoro-N-(3-(2-(tetrahydro-2H-pyran-4-yl)oxazol-5-yl)phenyl)bicyclo[1.1.1]pentane-1-carboxamide], CCc1noc(-c2cccc(N(CC34CCC(c5nc(C6CC6)no5)(CC3)CC4)C(=O)C34CC(F)(C3)C4)c2)n1 [Example 6, N-((4-(3-cyclopropyl-1,2,4-oxadiazol-5-yl)bicyclo[2.2.2]octan-1-yl)methyl)-N-(3-(3-ethyl-1,2,4-oxadiazol-5-yl)phenyl)-3-fluorobicyclo[1.1.1]pentane-1-carboxamide] is 1.9-fold lower in EC50: 251 nM for the first, 135 nM for the second. The second is the more potent here.

Cn1nc(C2CC2)cc1C12CCC(CN(C(=O)C34CC(F)(C3)C4)c3cccc(-c4noc(C(F)F)n4)c3)(CC1)CC2 [Example 164, N-((4-(3-cyclopropyl-1-methyl-1H-pyrazol-5-yl)bicyclo[2.2.2]octan-1-yl)methyl)-N-(3-(5-(difluoromethyl)-1,2,4-oxadiazol-3-yl)phenyl)-3-fluorobicyclo[1.1.1]pentane-1-carboxamide] and Cn1nc(C2CC2)cc1C12CCC(CN(C(=O)C34CC(F)(C3)C4)c3cccc(-c4noc(C5(C)CC5)n4)c3)(CC1)CC2 [Example 166, N-((4-(3-cyclopropyl-1-methyl-1H-pyrazol-5-yl)bicyclo[2.2.2]octan-1-yl)methyl)-3-fluoro-N-(3-(5-(1-methylcyclopropyl)-1,2,4-oxadiazol-3-yl)phenyl)bicyclo[1.1.1]pentane-1-carboxamide] are within 1.5-fold of each other in EC50: 104 nM for the first, 82 nM for the second.

Going from O=C([C@H]1C[C@](O)(C(F)(F)F)C1)N(CC12CCC(c3nc(C4CC4)no3)(CC1)CC2)c1cccc(-c2nc(C(F)F)co2)c1 [Example 42, (1s, 3s)-N-((4-(3-cyclopropyl-1,2,4-oxadiazol-5-yl)bicyclo[2.2.2]octan-1-yl)methyl)-N-(3-(4-(difluoromethyl)oxazol-2-yl)phenyl)-3-hydroxy-3-(trifluoromethyl)cyclobutane-1-carboxamide] to COC(C)(C)c1coc(-c2cccc(N(CC34CCC(c5nc(C6CC6)no5)(CC3)CC4)C(=O)C34CC(F)(C3)C4)c2)n1 [Example 79, N-((4-(3-cyclopropyl-1,2,4-oxadiazol-5-yl)bicyclo[2.2.2]octan-1-yl)methyl)-3-fluoro-N-(3-(4-(2-methoxypropan-2-yl)oxazol-2-yl)phenyl)bicyclo[1.1.1]pentane-1-carboxamide], the EC50 falls from 613 nM to 194 nM (3.2-fold). The second is the more potent here.

Compared with CCc1noc(-c2cccc(N(CC34CCC(c5ccc(C(C)(C)C#N)cc5)(CC3)OC4)C(=O)C34CC(F)(C3)C4)c2)n1 [Example 47, N-((1-(4-(2-cyanopropan-2-yl)phenyl)-2-oxabicyclo[2.2.2]octan-4-yl)methyl)-N-(3-(3-ethyl-1,2,4-oxadiazol-5-yl)phenyl)-3-fluorobicyclo[1.1.1]pentane-1-carboxamide], CC(C)(C)c1nc(-c2cccc(N(CC34CCC(c5cnc(C(F)(F)F)nc5)(CC3)OC4)C(=O)C34CC(F)(C3)C4)c2)no1 [Example 181, N-(3-(5-(tert-butyl)-1,2,4-oxadiazol-3-yl)phenyl)-3-fluoro-N-((1-(2-(trifluoromethyl)pyrimidin-5-yl)-2-oxabicyclo[2.2.2]octan-4-yl)methyl)bicyclo[1.1.1]pentane-1-carboxamide] is 2.8-fold higher in EC50: 299 nM for the first, 828 nM for the second.

Going from CC(C)(C)c1noc(C23CCC(CN(C(=O)C45CC(F)(C4)C5)c4cncc(-c5nc(C6CC6)no5)c4)(CC2)CC3)n1 [Example 207, N-((4-(3-(tert-butyl)-1,2,4-oxadiazol-5-yl)bicyclo[2.2.2]octan-1-yl)methyl)-N-(5-(3-cyclopropyl-1,2,4-oxadiazol-5-yl)pyridin-3-yl)-3-fluorobicyclo[1.1.1]pentane-1-carboxamide] to Cn1nc(C2CC2)cc1C12CCC(CN(C(=O)C34CC(F)(C3)C4)c3cncc(-c4nc(C5CC5)no4)c3)(CC1)CC2 [Example 205, N-(5-(3-cyclopropyl-1,2,4-oxadiazol-5-yl)pyridin-3-yl)-N-((4-(3-cyclopropyl-1-methyl-1H-pyrazol-5-yl)bicyclo[2.2.2]octan-1-yl)methyl)-3-fluorobicyclo[1.1.1]pentane-1-carboxamide], the EC50 falls from 571 nM to 218 nM (2.6-fold).

First: COc1cccc(-c2cccc(N(CC34CCC(c5nc(C)no5)(CC3)CC4)C(=O)C34CC(F)(C3)C4)c2)c1 [Example 221, 3-fluoro-N-(3′-methoxy-[1,1′-biphenyl]-3-yl)-N-((4-(3-methyl-1,2,4-oxadiazol-5-yl)bicyclo[2.2.2]octan-1-yl)methyl)bicyclo[1.1.1]pentane-1-carboxamide]
Second: Cn1nc(C23CCC(CN(C(=O)C45CC(F)(C4)C5)c4cccc(-c5noc(C6CC6)n5)c4)(CC2)CC3)cc1C1CC1 [Example 170, N-(3-(5-cyclopropyl-1,2,4-oxadiazol-3-yl)phenyl)-N-((4-(5-cyclopropyl-1-methyl-1H-pyrazol-3-yl)bicyclo[2.2.2]octan-1-yl)methyl)-3-fluorobicyclo[1.1.1]pentane-1-carboxamide]
The EC50 of the first is 6.8-fold higher: 506 nM for the first, 74 nM for the second. The second is the more potent here.

Compared with O=C(N(CC12CCC(c3cnc(C(F)(F)F)nc3)(CC1)OC2)c1cccc(-c2noc(C(F)F)n2)c1)C12CC(F)(C1)C2 [Example 182, N-(3-(5-(difluoromethyl)-1,2,4-oxadiazol-3-yl)phenyl)-3-fluoro-N-((1-(2-(trifluoromethyl)pyrimidin-5-yl)-2-oxabicyclo[2.2.2]octan-4-yl)methyl) bicyclo[1.1.1]pentane-1-carboxamide], O=C(N(CC12CCC(c3nc(C4CC4)no3)(CC1)OC2)c1cccc(-c2cc(C3CC3)on2)c1)C12CC(F)(C1)C2 [Example 199, N-((1-(3-cyclopropyl-1,2,4-oxadiazol-5-yl)-2-oxabicyclo[2.2.2]octan-4-yl)methyl)-N-(3-(5-cyclopropylisoxazol-3-yl)phenyl)-3-fluorobicyclo[1.1.1]pentane-1-carboxamide] is 7.1-fold lower in EC50: 2000 nM for the first, 281 nM for the second. The second is the more potent here.

First: COCc1nc(-c2cccc(N(CC34CCC(c5nc(C6CC6)no5)(CC3)CC4)C(=O)C3CC(C(F)F)C3)c2)cs1 (stereo not drawn) [Example 73, N-((4-(3-cyclopropyl-1,2,4-oxadiazol-5-yl)bicyclo[2.2.2]octan-1-yl)methyl)-3-(difluoromethyl)-N-(3-(2-(methoxymethyl)thiazol-4-yl)phenyl)cyclobutane-1-carboxamide]
Second: COCc1nc(-c2cccc(N(CC34CCC(c5nc(C6CC6)no5)(CC3)CC4)C(=O)C3CCC(F)(F)C3)c2)cs1 (stereo not drawn) [Example 74, N-((4-(3-cyclopropyl-1,2,4-oxadiazol-5-yl)bicyclo[2.2.2]octan-1-yl)methyl)-3,3-difluoro-N-(3-(2-(methoxymethyl)thiazol-4-yl)phenyl)cyclopentane-1-carb oxamide]
The EC50 of the first is 1.6-fold higher: 341 nM for the first, 220 nM for the second.
